Here are results for 6 compounds from patent publication US11325919B1, “Synthetic novel pyrroloiminoquinone alkaloid and method of use” (priority 2019, dated 2022).

Entries after “also recorded” stand apart in the source; their conditions may differ. Bounds are passed on as bounds.

Experiment [1] has as its system U251N. Description: differential cytotoxicity zone assay, U251N. The format is cell-based. The text has this:
(§1) Discorhabdin A is the precursor to aleutianamine.

Experiment [2] concerns PANC-1. Briefly: differential cytotoxicity zone assay, PANC-1. The format is cell-based, human.
Text: as §1

For experiment [3], the system named is LNCaP. Description: differential cytotoxicity zone assay, LNCaP. Type of experiment: cell-based, human.
Text: as §1

Experiment [4] relates to H-116. Description: differential cytotoxicity zone assay, H-116. The format is cell-based, human.
Text: as §1

Experiment [5] deals with MDA. Description: differential cytotoxicity zone assay, MDA. Type of experiment: cell-based.
Text: as §1

Experiment [6] has as its system OVC-5. Description: differential cytotoxicity zone assay, OVC-5. The format is cell-based.
Text: as §1

Experiment [7] concerns H-125. Description: differential cytotoxicity zone assay, H-125. The format is cell-based.
Text: as §1

For experiment [8], the system named is L1210. Description: differential cytotoxicity zone assay, L1210. Type of experiment: cell-based, murine.
Text: as §1

Experiment [9] has as its system MCF-7. Briefly: differential cytotoxicity zone assay, MCF-7. Type of experiment: cell-based, human.
Text: as §1

Experiment [10] concerns Colon 38. Briefly: differential cytotoxicity zone assay, Colon 38. The format is cell-based, murine.
Text: as §1

Experiment [11] relates to solid human tumor. The conditions noted are these: solid human tumor model; cited from earlier work.
Experiment [12] has as its system CEM. Briefly: differential cytotoxicity zone assay, CEM. The format is cell-based, human.
Text: as §1

In experiment [13] the test system is CFU-GM. Briefly: differential cytotoxicity zone assay, CFU-GM. Type of experiment: cell-based.
Text: as §1

Experiment [14] has as its system topoisomerase II. The conditions noted are these: cited from earlier work.
Experiment [15] relates to PANC-1 pancreatic cancer cells. Description: cytotoxicity IC50, PANC-1 pancreatic cancer cells. Type of experiment: cell-based. Particulars: Homo sapiens; pancreatic cancer (PANC-1).
The test system of experiment [16] is human HCT-116 colon cancer cells. Briefly: cytotoxicity IC50, HCT-116 colon cancer cells. The format is cell-based.
The test system of experiment [17] is HCT-116 cells. Briefly: clonogenic studies, concentration-survival as function of exposure time. Type of experiment: cell-based, human. The procedure:
Clonogenic studies were carried out using HCT-116 cells to define the concentration-survival relationship as a function of exposure time.^26 The endpoint used, tS10 (10% survival of clonogenic cells for exposure time t) provides information essential for future preclinical therapeutic studies. These clonogenic studies based on formula II yielded a 2S10 value of >5 μM; a 24S10 value of 0.75 μM; and a 168S10 value of 0.1 μM. […] Compounds shown in Formula I are simple modifications and bio-isosteres and would have similar activity to the compound of formula II.

Experiment [18] concerns solid tumor cell lines compared to murine and human leukemia cells. Briefly: differential cytotoxicity zone assay, solid tumor selectivity versus leukemia cells. Type of experiment: cell-based.
Text: as §1

With `C[C@H]([C@H](O)CCC(C)(C)O)[C@H]1CC[C@@]2(O)C3=CC(=O)[C@@H]4C[C@@H](O)[C@@H](O)C[C@]4(C)[C@H]3CC[C@]12C` [Ecdysone], the zones of inhibition in experiment [1] (Conc. 2 mg/ml), in [2] (Conc. 2 mg/ml), in experiment [3] (Conc. 2 mg/ml), in experiment [4] (Conc. 2 mg/ml), in [5] (Conc. 2 mg/ml) and in experiment [6] (Conc. 2 mg/ml) was 0 mm in each case. For the same compound, the zones of inhibition in [7] (Conc. 2 mg/ml), in [8] (Conc. 2 mg/ml), in experiment [9] (Conc. 2 mg/ml) and in experiment [10] (Conc. 2 mg/ml) was 0 mm in each case.
For `C[N+]1=C2C=C(N)C(=O)c3[nH]cc(c32)CC1.[Cl-]` [Makaluvamine C], the tumor size result in [11] is on record as “decrease tumor size”.
Consider `Cn1cc2c3c1C(=O)C(N)=CC3=NCC2` [Makaluvamine A], for which the tumor size entry in [11] is given as “decrease tumor size”.
Take karlotoxin 2: the zones of inhibition in experiment [1] (Conc. 2 mg/ml) was determined as 150 mm; in experiment [2] (Conc. 2 mg/ml) it was 200 mm; in experiment [3] (Conc. 2 mg/ml), 400 mm; in experiment [4] (Conc. 2 mg/ml), 200 mm; in experiment [12] (Conc. 2 mg/ml), 100 mm; in [5] (Conc. 2 mg/ml), 200 mm. The zones of inhibition in experiment [6] (Conc. 2 mg/ml) stood at 200 mm; in experiment [7] (Conc. 2 mg/ml), 100 mm; in experiment [8] (Conc. 2 mg/ml), 150 mm; in experiment [9] (Conc. 2 mg/ml) it was 200 mm; in experiment [10] (Conc. 2 mg/ml), 200 mm.
For the compound `O=C1CC2SC3C[C@]2(C=C1Br)C1=C(N3)C(=O)c2[nH]cc3c2C1=NCC3` (stereo partly drawn) [Discorhabdin A, discorhabdin A], the zones of inhibition in experiment [1] (Conc. 1/16) worked out at 300 mm; in experiment [1] (Conc. 1/64) it was 200 mm; in experiment [1] (Conc. ¼), 300 mm; in experiment [2] (Conc. 1/16), 150 mm; in [2] (Conc. 1/64) it was 100 mm; in experiment [2] (Conc. ¼), 450 mm. The zones of inhibition in experiment [3] (Conc. 1/16) is given as 500 mm; in experiment [3] (Conc. 1/64), 250 mm; in experiment [4] (Conc. 2 mg/ml), over 1000 mm; in experiment [4] (Conc. 1/16), 500 mm; in experiment [4] (Conc. ¼), 900 mm; in experiment [12] (Conc. 1/16), 100 mm. Further, the zones of inhibition in experiment [12] (Conc. 1/64) is 50 mm; in experiment [12] (Conc. ¼), 450 mm; in [5] (Conc. 1/16) it was 500 mm; in experiment [5] (Conc. 1/64) it was 300 mm; in experiment [5] (Conc. ¼), 1000 mm; in [6] (Conc. 1/16), 500 mm. Also, the zones of inhibition in experiment [6] (Conc. 1/64) is recorded as 200 mm; in experiment [6] (Conc. ¼) it was 700 mm; in experiment [13] (Conc. 1/16) it was 300 mm; in experiment [13] (Conc. ¼), over 1000 mm; in experiment [7] (Conc. 1/16), 750 mm; in [7] (Conc. 1/64) it was 400 mm. For the same compound, the zones of inhibition in experiment [7] (Conc. ¼) was determined as 950 mm; in experiment [8] (Conc. 2 mg/ml), 1000 mm; in experiment [8] (Conc. 1/16), 250 mm; in experiment [8] (Conc. ¼), 300 mm; in [9] (Conc. 1/16), 600 mm; in [9] (Conc. 1/64), 350 mm. Also, the zones of inhibition in experiment [9] (Conc. ¼) worked out at 800 mm; in [10] (Conc. 2 mg/ml), 750 mm; in experiment [10] (Conc. 1/16), 700 mm; in [10] (Conc. ¼), 800 mm. Besides, in experiment [14], the “inhibition of topoisomerase II” value is “no inhibition”.
Regarding `O=C1C2=C3C4=[N+](CCc5c[nH]c1c54)[C@@H]1C[C@]34S[C@@H](C=C4C=C1Br)N2` [Aleutianamine], the zones of inhibition was 850 mm in [1] (Conc. 1/16); 700 mm in experiment [1] (Conc. 1/64); over 1000 mm in experiment [1] (Conc. ¼); over 1000 mm in experiment [2] (Conc. 1/16); 650 mm in experiment [2] (Conc. 1/64); 1000 mm in experiment [3] (Conc. 1/16). The zones of inhibition is 500 mm in experiment [3] (Conc. 1/64); over 1000 mm in experiment [4] (Conc. 2 mg/ml); 600 mm in experiment [4] (Conc. 1/16); 250 mm in [4] (Conc. 1/64); 950 mm in experiment [4] (Conc. ¼); 750 mm in [12] (Conc. 1/16). The zones of inhibition in experiment [12] (Conc. 1/64) was 350 mm; in experiment [12] (Conc. ¼), 900 mm; in experiment [5] (Conc. 1/16), 800 mm; in experiment [5] (Conc. 1/64) it was 500 mm; in experiment [5] (Conc. ¼) it was over 1000 mm; in [6] (Conc. 1/16), 700 mm. The zones of inhibition in experiment [6] (Conc. 1/64) is on record as 350 mm; in experiment [6] (Conc. ¼), 900 mm; in experiment [13] (Conc. 1/16), over 1000 mm; in experiment [13] (Conc. 1/64) it was 750 mm; in experiment [13] (Conc. ¼) it was over 1000 mm; in experiment [7] (Conc. 1/16), 900 mm. The zones of inhibition is recorded as 400 mm in experiment [7] (Conc. 1/64); over 1000 mm in experiment [7] (Conc. ¼); 950 mm in [8] (Conc. 2 mg/ml); 500 mm in experiment [8] (Conc. 1/16); 250 mm in experiment [8] (Conc. 1/64); 700 mm in experiment [8] (Conc. ¼). Besides, the zones of inhibition in [9] (Conc. 1/16) is over 1000 mm; in experiment [9] (Conc. 1/64), 600 mm; in experiment [9] (Conc. ¼), over 1000 mm; in experiment [10] (Conc. 2 mg/ml), over 1000 mm; in experiment [10] (Conc. 1/16), 900 mm; in experiment [10] (Conc. 1/64), 450 mm. The compound also returned a zones of inhibition in experiment [10] (Conc. ¼) of over 1000 mm. Besides, the IC50 (as a rule, the concentration that inhibits the measured activity by half) in experiment [15] came out at 25 nM; in [16] (colon cancer (H116)) it was 1000 nM; in [16] (colon cancer (H116 / HCT-116)), 1000 nM. Moreover, the “2S10 (10% survival of clonogenic cells for exposure time t)” value in [17] (exposure time 2) is over 5 µM. In addition, the “24S10 (10% survival of clonogenic cells for exposure time t)” value in [17] (exposure time 24) is 0.75 µM. Also, the “168S10 (10% survival of clonogenic cells for exposure time t)” value in [17] (exposure time 168) is 0.1 µM. Further, the “selectivity of cell killing” value in [18] is “solid tumor selectivity; also recorded: highly potent and selective for pancreatic and breast cancer as well as gliobastoma”.
